We go through 44 compounds from patent publication US8501713B2, “Drug combinations for the treatment of duchenne muscular dystrophy” (Summit Corporation PLC, priority 2007, dated 2013).

The test relates to Utrophin A promoter linked to a luciferase reporter gene. Description: Luciferase reporter assay (murine H2K cells). Type of test: cell-based. The settings on record: Mus musculus, H2K mdx, luciferase level relative to control; H2K/mdx/Utro A reporter cells; compound 10 μM final concentration; read-out: Activity. As to the method: 1. Luciferase Reporter Assay (Murine H2K Cells)
The cell line used for the screen is an immortalized mdx mouse H2K cell line that has been stably transfected with a plasmid containing […] fragment of the Utrophin A promoter including the first untranslated exon linked to a luciferase reporter gene. Under conditions of low temperature and interferon containing media, the cells remain as myoblasts. These are plated into 96 well plates and cultured in the presence of compound for three days. The level of luciferase is then determined by cell lysis and reading of the light output from the expressed luciferase gene utilising a plate luminometer.
H2K/mdx/Utro A reporter Cell Line Maintenance
The cells were grown at 33° C. in the presence of 10% CO2. To remove the myoblasts for platting, they were incubated with Trypsin EDTA until the monolayer started to detach.
The plates were then incubated at 33° C. in the presence of 10% CO2 for 24 hrs. Compounds were dosed by adding 10 μl of diluted compound to each well giving a final concentration of 10 μM. The plates were then incubated for a further 48 hrs. Cells were then lysed in situ following the manufacture's protocols (Promega Steady-Glo Luciferase Assay System (E2520). Then counted for 10 seconds using a plate luminometer (Victor1420).
Compounds for screening were stored at −20° C. as 10 mM stocks in 100% DMSO until required.
Biological activity as assessed using the luciferase reporter assay in murine H2K cells, and is classified as follows: […]

Regarding `O=C(Nc1ccc2oc(-c3ccccc3)nc2c1)c1ccncc1` [Example 22, N-(2-phenylbenzo[d]oxazol-5-yl)isonicotinamide], the activity at 10 µM was less than 200%.

On to `O=C(Nc1ccc2oc(-c3ccccc3)nc2c1)c1ccc(Cl)cc1` [Example 23, 4-chloro-N-(2-phenylbenzo[d]oxazol-5-yl)benzamide], for which the activity at 10 µM was less than 200%.

As for `Cc1ccc(C(=O)Nc2ccc3oc(-c4ccccc4)nc3c2)cc1` [Example 24, 4-methyl-N-(2-phenylbenzo[d]oxazol-5-yl)benzamide], the activity at 10 µM was less than 200%.

Turning to `COc1ccc(C(=O)Nc2ccc3oc(-c4ccccc4)nc3c2)cc1` [Example 25, 4-methoxy-N-(2-phenylbenzo[d]oxazol-5-yl)benzamide], the activity at 10 µM is less than 200%.

For the compound `COc1ccccc1C(=O)Nc1ccc2oc(-c3ccccc3)nc2c1` [Example 26, 2-methoxy-N-(2-phenylbenzo[d]oxazol-5-yl)benzamide], the activity at 10 µM is less than 200%.

With `CN(C)c1ccc(C(=O)Nc2ccc3oc(-c4ccccc4)nc3c2)cc1` [Example 27, 4-(dimethylamino)-N-(2-phenylbenzo[d]oxazol-5-yl)benzamide], the activity at 10 µM was less than 200%.

As for `O=C(Nc1ccc2oc(-c3ccccc3)nc2c1)c1ccc(Cl)c(Cl)c1` [Example 28, 3,4-dichloro-N-(2-phenylbenzo[d]oxazol-5-yl)benzamide], the activity at 10 µM is less than 200%.

`O=C(Nc1ccc2oc(-c3ccccc3)nc2c1)c1ccc(C(F)(F)F)cc1` [Example 29, N-(2-phenylbenzo[d]oxazol-5-yl)-4-(trifluoromethyl)benzamide]: the activity at 10 µM is less than 200%.

Turning to `O=C(Nc1ccc2oc(-c3ccccc3)nc2c1)c1cc(Cl)cc(Cl)c1` [Example 30, 3,5-dichloro-N-(2-phenylbenzo[d]oxazol-5-yl)benzamide], the activity at 10 µM is less than 200%.

On to `O=C(Nc1ccc2oc(-c3ccccc3)nc2c1)c1ccc(F)cc1` [Example 31, 4-fluoro-N-(2-phenylbenzo[d]oxazol-5-yl)benzamide], for which the activity at 10 µM is less than 200%.

As to `O=C(Nc1ccc2oc(-c3ccccc3)nc2c1)c1ccc(-c2ccccc2)cc1` [Example 32, N-(2-phenylbenzo[d]oxazol-5-yl)biphenyl-4-carboxamide], the activity at 10 µM is less than 200%.

Take `O=C(Cc1ccccc1)Nc1ccc2oc(-c3ccccc3)nc2c1` [Example 33, 2-phenyl-N-(2-phenylbenzo[d]oxazol-5-yl)acetamide]: the activity at 10 µM is less than 200%.

For `O=C(C=Cc1ccccc1)Nc1ccc2oc(-c3ccccc3)nc2c1` [Example 34, N-(2-phenylbenzo[d]oxazol-5-yl)cinnamamide], the activity at 10 µM is less than 200%.

Consider `O=C(Nc1ccc2oc(-c3ccccc3)nc2c1)c1cccc2ccccc12` [Example 35, N-(2-phenylbenzo[d]oxazol-5-yl)-1-naphthamide], for which the activity at 10 µM is less than 200%.

With `O=C(Nc1ccc2oc(-c3ccccc3)nc2c1)c1ccc2ccccc2c1` [Example 36, N-(2-phenylbenzo[d]oxazol-5-yl)-2-naphthamide], the activity at 10 µM is less than 200%.

Consider `O=C(Nc1ccc2oc(-c3ccccc3)nc2c1)c1cccs1` [Example 37, N-(2-phenylbenzo[d]oxazol-5-yl)thiophene-2-carboxamide], for which the activity at 10 µM lay in the range of 201 to 300%.

On to `Nc1ccc2oc(-c3ccccc3O)nc2c1` [Example 38, 2-(5-aminobenzo[d]oxazol-2-yl)phenol], for which the activity at 10 µM is 301 to 400%.

On to `O=C(Nc1ccc2oc(-c3cccnc3)nc2c1)c1ccccc1` [Example 39, N-(2-(pyridin-3-yl)benzo[d]oxazol-5-yl)benzamide], for which the activity at 10 µM was less than 200%.

Turning to `O=C(Nc1ccc2oc(-c3cccnc3)nc2c1)c1ccc(Cl)cc1` [Example 40, 4-chloro-N-(2-(pyridin-3-yl)benzo[d]oxazol-5-yl)benzamide], the activity at 10 µM is less than 200%.

For `Cc1ccc(C(=O)Nc2ccc3oc(-c4cccnc4)nc3c2)cc1` [Example 41, 4-methyl-N-(2-(pyridin-3-yl)benzo[d]oxazol-5-yl)benzamide], the activity at 10 µM is less than 200%.

`COc1ccc(C(=O)Nc2ccc3oc(-c4cccnc4)nc3c2)cc1` [Example 42, 4-methoxy-N-(2-(pyridin-3-yl)benzo[d]oxazol-5-yl)benzamide]: the activity at 10 µM was less than 200%.

Take `COc1ccccc1C(=O)Nc1ccc2oc(-c3cccnc3)nc2c1` [Example 43, 2-methoxy-N-(2-(pyridin-3-yl)benzo[d]oxazol-5-yl)benzamide]: the activity at 10 µM is less than 200%.

With `CN(C)c1ccc(C(=O)Nc2ccc3oc(-c4cccnc4)nc3c2)cc1` [Example 44, 4-(dimethylamino)-N-(2-(pyridin-3-yl)benzo[d]oxazol-5-yl)benzamide], the activity at 10 µM is less than 200%.

Turning to `O=C(Nc1ccc2oc(-c3cccnc3)nc2c1)c1ccc(Cl)c(Cl)c1` [Example 45, 3,4-dichloro-N-(2-(pyridin-3-yl)benzo[d]oxazol-5-yl)benzamide], the activity at 10 µM is less than 200%.

For `O=C(Nc1ccc2oc(-c3cccnc3)nc2c1)c1ccc(C(F)(F)F)cc1` [Example 46, N-(2-(pyridin-3-yl)benzo[d]oxazol-5-yl)-4-(trifluoromethyl)benzamide], the activity at 10 µM was less than 200%.

Consider `O=C(Nc1ccc2oc(-c3cccnc3)nc2c1)c1cc(Cl)cc(Cl)c1` [Example 47, 3,5-dichloro-N-(2-(pyridin-3-yl)benzo[d]oxazol-5-yl)benzamide], for which the activity at 10 µM was less than 200%.

Turning to `O=C(Nc1ccc2oc(-c3cccnc3)nc2c1)c1ccc(F)cc1` [Example 48, 4-fluoro-N-(2-(pyridin-3-yl)benzo[d]oxazol-5-yl)benzamide], the activity at 10 µM was less than 200%.

Turning to `O=C(Nc1ccc2oc(-c3cccnc3)nc2c1)c1ccc(-c2ccccc2)cc1` [Example 49, N-(2-(pyridin-3-yl)benzo[d]oxazol-5-yl)biphenyl-4-carboxamide], the activity at 10 µM is less than 200%.

`O=C(Cc1ccccc1)Nc1ccc2oc(-c3cccnc3)nc2c1` [Example 50, 2-phenyl-N-(2-(pyridin-3-yl)benzo[d]oxazol-5-yl)acetamide]: the activity at 10 µM is less than 200%.

With `O=C(CCc1ccccc1)Nc1ccc2oc(-c3cccnc3)nc2c1` [Example 51, 3-phenyl-N-(2-(pyridin-3-yl)benzo[d]oxazol-5-yl)propanamide], the activity at 10 µM was less than 200%.

Regarding `O=C(C=Cc1ccccc1)Nc1ccc2oc(-c3cccnc3)nc2c1` [Example 52, N-(2-(pyridin-3-yl)benzo[d]oxazol-5-yl)cinnamamide], the activity at 10 µM was less than 200%.

For the compound `CCC(=O)Nc1ccc2oc(-c3cccnc3)nc2c1` [Example 53, N-(2-(pyridin-3-yl)benzo[d]oxazol-5-yl)propionamide], the activity at 10 µM is less than 200%.

`CCCC(=O)Nc1ccc2oc(-c3cccnc3)nc2c1` [Example 54, N-(2-(pyridin-3-yl)benzo[d]oxazol-5-yl)butyramide]: the activity at 10 µM is less than 200%.

Regarding `CCCCC(=O)Nc1ccc2oc(-c3cccnc3)nc2c1` [Example 55, N-(2-(pyridin-3-yl)benzo[d]oxazol-5-yl)pentanamide], the activity at 10 µM was less than 200%.

For `CC(C)C(=O)Nc1ccc2oc(-c3cccnc3)nc2c1` [Example 56, N-(2-(pyridin-3-yl)benzo[d]oxazol-5-yl)isobutyramide], the activity at 10 µM was in the range of 201 to 300%.

With `O=C(Nc1ccc2oc(-c3cccnc3)nc2c1)c1ccco1` [Example 57, N-(2-(pyridin-3-yl)benzo[d]oxazol-5-yl)furan-2-carboxamide], the activity at 10 µM was less than 200%.

In the case of `O=C(Nc1ccc2oc(-c3ccccc3)nc2c1)c1ccccc1` [Example 59, N-(2-phenylbenzo[d]oxazol-5-yl)benzamide], the activity at 10 µM lay in the range of 201 to 300%.

For the compound `CCN(CC)c1ccc(-c2nc3cc(NC(=O)c4cccnc4)ccc3o2)cc1` [Example 60, N-(2-(4-(diethylamino)phenyl)benzo[d]oxazol-5-yl)nicotinamide], the activity at 10 µM was 201 to 300%.

As to `CCN(CC)c1ccc(-c2nc3cc(NC(=O)c4ccncc4)ccc3o2)cc1` [Example 61, N-(2-(4-(diethylamino)phenyl)benzo[d]oxazol-5-yl)isonicotinamide], the activity at 10 µM was less than 200%.

For the compound `CCN(CC)c1ccc(-c2nc3cc(NC(=O)c4ccccc4)ccc3o2)cc1` [Example 62, N-(2-(4-(diethylamino)phenyl)benzo[d]oxazol-5-yl)benzamide], the activity at 10 µM was less than 200%.

For the compound `CCN(CC)c1ccc(-c2nc3cc(NC(=O)c4ccc(Cl)cc4)ccc3o2)cc1` [Example 63, 4-chloro-N-(2-(4-(diethylamino)phenyl)benzo[d]oxazol-5-yl)benzamide], the activity at 10 µM is less than 200%.

Take `CCN(CC)c1ccc(-c2nc3cc(NC(=O)c4ccc(C)cc4)ccc3o2)cc1` [Example 64, N-(2-(4-(diethylamino)phenyl)benzo[d]oxazol-5-yl)-4-methylbenzamide]: the activity at 10 µM is less than 200%.

In the case of `CCN(CC)c1ccc(-c2nc3cc(NC(=O)c4ccc(OC)cc4)ccc3o2)cc1` [Example 65, N-(2-(4-(diethylamino)phenyl)benzo[d]oxazol-5-yl)-4-methoxybenzamide], the activity at 10 µM is less than 200%.

For `CCN(CC)c1ccc(-c2nc3cc(NC(=O)c4ccccc4OC)ccc3o2)cc1` [Example 66, N-(2-(4-(diethylamino)phenyl)benzo[d]oxazol-5-yl)-2-methoxybenzamide], the activity at 10 µM is less than 200%.
